From patent US11485742B2, “2-azaspiro[3.4]octane derivatives as M4 agonists” (NOVARTIS AG, priority 2019, dated 2022)
Structures can show the parent of a compound that is named as a salt.

Assays:
Type in all cases: cell-based
[1] = target: T1, Cloned human M1 receptor (CHRM1) (Homo sapiens, UniProt P11229); assay: CHRM1 Ca++ Flux Assay (HEK293 M1 cells, agonist mode); conditions: for Emax: Percent Activity (PA), read-out: M1 FDSS PA %; for EC50: geometric mean if tested more than once, read-out: M1 FDSS EC50
T1 construct: expressed in transfected cells; host or cells: HEK293
T1 sequence (P11229 1-460): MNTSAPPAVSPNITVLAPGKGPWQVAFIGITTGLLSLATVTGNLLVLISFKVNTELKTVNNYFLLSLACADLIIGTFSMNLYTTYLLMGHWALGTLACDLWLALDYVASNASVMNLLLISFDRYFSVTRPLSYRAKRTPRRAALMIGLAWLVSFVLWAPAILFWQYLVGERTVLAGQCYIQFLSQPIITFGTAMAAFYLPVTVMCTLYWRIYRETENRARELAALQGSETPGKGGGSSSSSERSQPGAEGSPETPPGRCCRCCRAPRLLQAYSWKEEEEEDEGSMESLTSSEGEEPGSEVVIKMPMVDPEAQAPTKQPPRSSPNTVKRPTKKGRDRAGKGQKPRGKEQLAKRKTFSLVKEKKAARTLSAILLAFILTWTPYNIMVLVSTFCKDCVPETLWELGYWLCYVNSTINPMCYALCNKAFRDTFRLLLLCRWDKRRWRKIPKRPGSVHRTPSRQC
In short: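 In agonist mode, compound-induced intracellular Ca++ mobilization was recorded for 3 min by fluorescent imager. The cells were HEK293 stably expressing cloned human CHRM1, in Ca/Mg-free HBSS with 20 mM HEPES. Triplicate 11-point dose-responses were fitted by four-parameter regression and normalized to the carbachol EC100 response.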

[2] = target: T2, human cloned CHRM3 receptor (Homo sapiens, UniProt P20309); assay: CHRM3 Ca++ Flux Assay (M3_CHO cells, agonist mode); conditions: for Emax: Percent Activity (PA) measured to EC100 of Carbachol, read-out: M3 FDSS PA %; for EC50: agonist mode, geometric mean if tested more than once, read-out: M3 FDSS EC50
T2 construct: expressed in transfected cells; host or cells: CHO-K1 (M3_CHO)
T2 sequence (P20309 whole entry): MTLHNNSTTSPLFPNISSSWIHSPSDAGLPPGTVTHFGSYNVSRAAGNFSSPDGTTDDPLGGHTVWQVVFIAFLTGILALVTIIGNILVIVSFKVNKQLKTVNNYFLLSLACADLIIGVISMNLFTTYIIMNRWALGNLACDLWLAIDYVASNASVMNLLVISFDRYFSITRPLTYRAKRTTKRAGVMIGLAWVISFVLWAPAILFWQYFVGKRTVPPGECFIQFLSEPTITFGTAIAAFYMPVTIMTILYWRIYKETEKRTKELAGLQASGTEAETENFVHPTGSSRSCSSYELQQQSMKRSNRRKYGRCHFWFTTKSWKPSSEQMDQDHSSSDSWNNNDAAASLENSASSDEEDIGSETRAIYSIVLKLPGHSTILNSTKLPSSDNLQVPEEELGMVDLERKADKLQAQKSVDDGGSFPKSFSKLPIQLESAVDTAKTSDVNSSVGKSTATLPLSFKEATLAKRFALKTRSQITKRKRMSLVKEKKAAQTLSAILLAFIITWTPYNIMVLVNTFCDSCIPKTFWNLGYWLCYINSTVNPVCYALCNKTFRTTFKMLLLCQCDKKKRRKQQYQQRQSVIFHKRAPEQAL
In short: (§1)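 Agonist-mode calcium mobilisation: compounds, 11 concentrations in triplicate, applied to stable M3_CHO or M5_CHO cells loaded with Ca++ dye, fluorescence followed 3 min. Efficacy expressed against carbachol EC100; EC curves by four-parameter nonlinear regression, geometric mean across independent runs.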

[3] = target: T3, human cloned CHRM5 receptor (Homo sapiens, UniProt P08912); assay: CHRM5 Ca++ Flux Assay (M5_CHO cells, agonist mode); conditions: for Emax: Percent Activity (PA) measured to EC100 of Carbachol, read-out: M5 FDSS PA %; for EC50: agonist mode, geometric mean if tested more than once, read-out: M5 FDSS EC50
T3 construct: expressed in transfected cells; host or cells: CHO (M5_CHO)
T3 sequence (P08912 1-532): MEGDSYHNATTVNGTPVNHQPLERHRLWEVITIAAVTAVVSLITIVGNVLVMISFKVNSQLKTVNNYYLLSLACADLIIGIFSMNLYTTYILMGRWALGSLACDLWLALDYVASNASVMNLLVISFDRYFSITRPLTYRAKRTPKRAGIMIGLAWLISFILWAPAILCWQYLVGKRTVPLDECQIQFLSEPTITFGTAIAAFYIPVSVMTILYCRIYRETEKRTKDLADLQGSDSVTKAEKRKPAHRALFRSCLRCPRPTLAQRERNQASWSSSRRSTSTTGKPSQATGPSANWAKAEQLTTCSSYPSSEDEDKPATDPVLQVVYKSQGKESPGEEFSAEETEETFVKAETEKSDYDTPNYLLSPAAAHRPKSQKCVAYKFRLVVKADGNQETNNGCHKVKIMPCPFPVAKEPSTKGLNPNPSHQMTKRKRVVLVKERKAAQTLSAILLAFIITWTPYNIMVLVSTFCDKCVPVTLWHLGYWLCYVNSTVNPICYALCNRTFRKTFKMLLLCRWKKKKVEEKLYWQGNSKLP
In short: as §1

Emax [1] | EC50 [1] | Emax [2] | EC50 [2] | Emax [3] | EC50 [3] | SMILES
66% | 0.786 µM | 0% | > 25 µM | 0% | > 25 µM | Fc1cc(O[C@@H]2CCOC2)c(C2CCN([C@@H]3COC4(C3)CN(c3nncs3)C4)CC2)cc1F [Example 5M, (S)-7-(4-(4,5-difluoro-2-(((R)-tetrahydrofuran-3-yl)oxy)phenyl)piperidin-1-yl)-2-(1,3,4-thiadiazol-2-yl)-5-oxa-2-azaspiro[3.4]octane]
78% | 0.789 µM | 0% | > 25 µM | 0% | > 25 µM | Fc1ccc(O[C@H]2CCOC2)c(C2CCN([C@@H]3COC4(C3)CN(c3nncs3)C4)CC2)c1 [Example 5O, (S)-7-(4-(5-fluoro-2-(((S)-tetrahydrofuran-3-yl)oxy)phenyl)piperidin-1-yl)-2-(1,3,4-thiadiazol-2-yl)-5-oxa-2-azaspiro[3.4]octane]
91% | 0.413 µM | 0% | > 25 µM | 0% | > 25 µM | CC(C)(O)CCOc1ccc(F)cc1C1CCN([C@@H]2COC3(C2)CN(c2nncs2)C3)CC1 [Example 5P, (S)-4-(2-(1-(2-(1,3,4-thiadiazol-2-yl)-5-oxa-2-azaspiro[3.4]octan-7-yl)piperidin-4-yl)-4-fluorophenoxy)-2-methylbutan-2-ol]
86% | 0.864 µM | 0% | > 25 µM | 0% | > 25 µM | c1ccc(C2CCN([C@@H]3COC4(C3)CN(c3nncs3)C4)CC2)c(OC2COC2)c1 [Example 5Q, (S)-7-(4-(2-(oxetan-3-yloxy)phenyl)piperidin-1-yl)-2-(1,3,4-thiadiazol-2-yl)-5-oxa-2-azaspiro[3.4]octane formate salt]
52% | 0.904 µM | 0% | > 25 µM | 0% | > 25 µM | COc1ccccc1C1CCN([C@@H]2COC3(C2)CN(c2nncs2)C3)CC1 [Example 5R, (S)-7-(4-(2-methoxyphenyl)piperidin-1-yl)-2-(1,3,4-thiadiazol-2-yl)-5-oxa-2-azaspiro[3.4]octane]
87% | 0.761 µM | 0% | > 25 µM | 0% | > 25 µM | COCCOc1ccc(F)cc1C1CCN([C@@H]2COC3(C2)CN(c2nncs2)C3)CC1 [Example 5S, (S)-7-(4-(5-fluoro-2-(2-methoxyethoxy)phenyl)piperidin-1-yl)-2-(1,3,4-thiadiazol-2-yl)-5-oxa-2-azaspiro[3.4]octane]
57% | 1.79 µM | 0% | > 25 µM | 0% | > 25 µM | COc1cc(F)ccc1C1CCN([C@@H]2COC3(C2)CN(c2nncs2)C3)CC1 [Example 5T, (S)-7-(4-(4-fluoro-2-methoxyphenyl)piperidin-1-yl)-2-(1,3,4-thiadiazol-2-yl)-5-oxa-2-azaspiro[3.4]octane]
75% | 2.44 µM | 0% | > 25 µM | 0% | > 25 µM | CC(C)(O)COc1ccc(F)cc1C1CCN([C@@H]2COC3(C2)CN(c2nncs2)C3)CC1 [Example 5U, (S)-1-(2-(1-(2-(1,3,4-thiadiazol-2-yl)-5-oxa-2-azaspiro[3.4]octan-7-yl)piperidin-4-yl)-4-fluorophenoxy)-2-methylpropan-2-ol]

SMILES | Emax [1] | EC50 [1] | Emax [2] | EC50 [2] | Emax [3] | EC50 [3]
COC(C)(C)CCOc1ccc(F)cc1C1CCN([C@@H]2COC3(C2)CN(c2nncs2)C3)CC1 [Example 5N, (S)-7-(4-(5-fluoro-2-(3-methoxy-3-methylbutoxy)phenyl)piperidin-1-yl)-2-(1,3,4-thiadiazol-2-yl)-5-oxa-2-azaspiro[3.4]octane] | 68% | 2.97 µM | 0% | > 25 µM | 21% | 12.4 µM
